Measurements from US11167007B2, “FOXM1 modulators and uses thereof” (City of Hope, priority 2016, dated 2021).
Entries after “also recorded” stand apart in the source; their conditions may differ.

What was measured:
[1] = target: T1, AR (Homo sapiens, UniProt P10275); experiment: FRET-based AR conformation change reporter (CARY) in C2C12 muscle cells; format: cell-based, murine; set-up: Full length AR with cyan fluorescent protein (CFP) or yellow fluorescent protein (YFP) fused to either end (CARY); expressed in transfected cells; settings: FRET or luciferase
T1 sequence (P10275 1-920): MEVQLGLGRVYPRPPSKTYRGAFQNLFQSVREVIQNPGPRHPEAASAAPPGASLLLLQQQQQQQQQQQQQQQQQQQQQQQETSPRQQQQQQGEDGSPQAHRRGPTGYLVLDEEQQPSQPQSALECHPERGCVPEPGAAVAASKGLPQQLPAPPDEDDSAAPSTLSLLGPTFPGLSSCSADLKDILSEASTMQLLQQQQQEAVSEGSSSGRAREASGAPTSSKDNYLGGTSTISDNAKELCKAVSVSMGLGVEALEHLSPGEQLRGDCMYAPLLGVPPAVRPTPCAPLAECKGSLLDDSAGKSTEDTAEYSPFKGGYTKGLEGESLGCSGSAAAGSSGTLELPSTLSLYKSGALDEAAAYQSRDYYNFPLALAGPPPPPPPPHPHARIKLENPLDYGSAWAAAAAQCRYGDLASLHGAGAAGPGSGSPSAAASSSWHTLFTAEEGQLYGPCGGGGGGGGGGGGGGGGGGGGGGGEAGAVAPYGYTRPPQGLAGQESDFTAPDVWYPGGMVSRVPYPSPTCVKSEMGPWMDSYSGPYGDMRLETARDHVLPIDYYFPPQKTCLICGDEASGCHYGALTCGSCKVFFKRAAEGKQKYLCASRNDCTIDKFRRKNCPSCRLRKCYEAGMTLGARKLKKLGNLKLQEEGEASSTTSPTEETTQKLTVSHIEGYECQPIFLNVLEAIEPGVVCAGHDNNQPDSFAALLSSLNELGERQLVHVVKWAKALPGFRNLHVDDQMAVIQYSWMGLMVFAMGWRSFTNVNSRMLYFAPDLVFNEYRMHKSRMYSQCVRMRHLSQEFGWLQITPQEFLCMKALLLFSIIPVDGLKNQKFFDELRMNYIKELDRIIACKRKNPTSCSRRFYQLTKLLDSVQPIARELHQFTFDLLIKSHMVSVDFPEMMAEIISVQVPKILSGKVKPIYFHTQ
Procedure: (§1) Creation of stable C-AR-Y reporter cell lines. Cell lines listed above were either transfected with a plasmid or a virus containing the CFP-AR-YFP construct preceding an IRES and hygromycin resistance gene and clonal stable cell lines selected. Qualification criteria for the transfected cell lines were described by Jones et al, ACS Chem Biol, 3(7):412-8 (2008).
(§2) Screen for AR-modulators. Screening was performed essentially as described by Jones et al, ACS Chem Biol, 3(7):412-8 (2008). Briefly, C-AR-Y reporter GTI-7 were transferred to 96 well plates and treated with library compounds for 24 hours. […] The compounds to be tested were from the NCI/DTP Open Chemical Repository's Approved Oncology Drugs Set II, Diversity Set II and Mechanistic Set. […] After 24 hours, medium was aspirated and FRET was measured as previously described using a monochromator-based fluorescence plate reader (M1000, Tecan, Inc.). Jones et al, ACS Chem Biol, 3(7):412-8 (2008). […]
(§3) In order to identify potential cell-type selective AR modulators, the FRET-based assay of AR conformation change was utilized. […] This produces an accurate and quantifiable read-out of AR activity. […] Candidate hits were then further evaluated by dose response. […] In addition to FRET, AR transcriptional activity was also assessed in several cell lines by transfecting cells with a luciferase reporter driven by the human PSA promoter. […]

[2] = target: T1, AR; experiment: FRET-based AR conformation change reporter (CARY) in HEK293 kidney cells; format: cell-based; set-up: Full length AR with cyan fluorescent protein (CFP) or yellow fluorescent protein (YFP) fused to either end (CARY); expressed in transfected cells
Procedure: as §1, §2, §3

C=C(NC(=O)C(=C)NC(=O)c1csc(C2=N[C@@H]3c4csc(n4)[C@H]4NC(=O)c5csc(n5)[C@H]([C@](C)(O)[C@@H](C)O)NC(=O)[C@H]5CSC(=N5)/C(=C/C)NC(=O)[C@H]([C@@H](C)O)NC(=O)c5csc(n5)[C@]3(CC2)NC(=O)[C@H](C)NC(=O)C(=C)NC(=O)C(=C)NC(=O)[C@H](C(C)C)N[C@@H]2C=Cc3c([C@H](C)O)cc(nc3[C@H]2O)C(=O)O[C@@H]4C)n1)C(N)=O [NSC285116, siomycin A] was tested, and the “AR inhibitor (antagonist) activity in words” value [1] was “little to no activity; also recorded: not C2C12 muscle cells” and the “AR inhibitor activity in words” value [2] was “some activity”.
